Laboratory results published in PubChem BioAssay AID179 (DTP/NCI, 2004).
Active and inactive are the calls of the source.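 How the source made its calls: active means compounds giving half or more protection of infected cells from virus-caused growth loss, again on retest; inactive means the rest.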 Where a SMILES comes first, the peptide text is derived from it. Bridges are numbered along the chain shown (N, C = ends). Roman numbers before positions name the chains, in order.

System: CEM cells HIV-1 protection, formazan growth assay
Assay: NCI AIDS Antiviral Assay
Conditions: for IC50: measured here: growth of uninfected CEM cells
Procedure, shortened: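 CEM (human) cells, HIV-1 infected vs uninfected, 5-point dosing, formazan growth read-out. Retest threshold 50% protection.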

| Structure (SMILES) | EC50 [µM] | IC50 [µM] | outcome |
| --- | --- | --- | --- |
| COc1cccc(C2c3cc4c(cc3OC(NNS(=O)(=O)c3ccc(C)cc3)C2C)OCO4)c1OC (centres undefined) | > 200 | 1.86 | – |
| CC1CN=C(CCc2ccc(NC(=O)c3ccc(C(=O)Nc4ccc(CCC5=NCC(C)N5)cc4)cc3)cc2)N1 (centres undefined) | > 200 | 45.7 | – |
| Cn1c(=O)c2nc(-c3ccc(Cl)cc3)oc2n(C)c1=O | > 9.33 | > 9.33 | – |
| COCC12CCC(OC)C34C5CC6(O)C(OC)CC(OC(C)=O)(C5C6OC(=O)c5ccccc5)C(C(OC)C13)C4N(C)C2 (centres undefined) | – | – | inactive |
| Cc1cc(C)c(C(=O)c2c(C)ccc(C)c2C(=O)O)c(C)c1 | > 200 | > 200 | – |
| COCC(=O)OC1CCn2c1nc1c2C(=O)C(C)=C(NC(C)=O)C1=O (centres undefined) | > 200 | 1.26 | – |
| Cc1c2c(n3c(nc4ccccc43)c1C#N)SCC2 | > 200 | > 200 | – |
| CC(=O)Nc1ccc2cc(-c3ccc(Cl)cc3)c3nnnn3c2n1 | > 200 | > 200 | – |
| NCCCC[C@H](NC(=O)[C@H](CS)NC(=O)[C@@H](N)Cc1cnc[nH]1)C(=O)N[C@H](Cc1ccccc1)C(=O)N[C@@H](Cc1c[nH]c2ccccc12)C(=O)N[C@@H](Cc1c[nH]c2ccccc12)C(N)=O | > 200 | > 200 | – |
| Cc1cn(CC(CO)CCO)c(=O)[nH]c1=O (centres undefined) | > 1100 | > 1100 | – |
| O=C(O)c1ccc([As](=O)(O)O)c([N+](=O)[O-])c1 | > 200 | > 200 | – |
| Cn1nc2ccc(Nc3cc(=O)[nH]c4ccc5nn(C)nc5c34)cc2n1 | > 200 | 95.5 | – |
| Cc1nc2c(ccc3c(C)c(C)c(C)nc32)c(C)c1C | > 20 | 0.977 | – |
| CCOC(=O)/C(=C/c1ccc2ccccc2c1)P(=O)(OCC)OCC | > 100 | 24 | – |
| Cn1nc(-c2ccccc2)c(C(=O)/C=C/c2ccc(F)cc2)c(N2CCOCC2)c1=O | > 87.1 | > 87.1 | – |
| NC(CSSCC(N)C(=O)NC(Cc1ccccc1)C(=O)O)C(=O)NC(Cc1ccccc1)C(=O)O (stereo not drawn) (I: H-Cys-Phe-OH / II: H-Cys-Phe-OH; disulfide I:1-II:1; configuration not given here) | > 200 | > 200 | – |
| CCCCN(CCCC)/N=C/c1c2c(O)c3c(O)c(C)c4c(c3c1O)C(=O)C(C)(O/C=C/C(OC)C(C)C(OC(C)=O)C(C)C(O)C(C)C(O)C(C)/C=C/C=C(C)C(=O)N2)O4 (centres undefined) | > 200 | 9.12 | – |
| O=C1SC(c2ccccc2)(c2ccccc2)c2ccccc21 | > 4.79 | > 4.79 | – |
| COc1c(OC(C)C)c(OC(C)C)c2oc(=O)n3c2c1C(c1ccccc1-n1c(C)ccc1C)C=C3 (centres undefined) | > 200 | > 200 | – |
| CC(=O)O[C@]12CCCCCC1C1(O)C(O)CCCC[C@H]12 (some centres undefined) | > 200 | > 200 | – |
| CCOC(=O)c1cnc2c(ccc3ncccc32)c1NCCCN(CC)CC | > 69.2 | 9.55 | – |

| Structure (SMILES) | EC50 [µM] | IC50 [µM] | outcome |
| --- | --- | --- | --- |
| CC(C)=CC(=O)N(C)C1C2CN3CCC(O2)C13 (centres undefined) | – | – | inactive |
| CCOC(=O)CC1(CC(=O)OCC)C(=O)N(C)c2ccccc21 | > 200 | > 200 | – |
| COc1ccc(/C(Cl)=C(\C#N)c2ccc(OC)c(OC)c2)cc1OC | > 200 | 58.9 | – |
| NC(=O)N/N=C1\CC2C3CC4C2C4C13 (centres undefined) | > 200 | > 200 | – |
| COC(=O)c1c2c(cc3c1CCC3)CCC2 | > 200 | > 200 | – |
| Cn1c(CNc2ccc(-c3n[nH]c(=S)n3C)cc2)n[nH]c1=S | > 200 | > 200 | – |
| O=C(O)CCCCCCCCCOc1ccccc1 | > 200 | 40.7 | – |
| C/C(CC(=O)Nc1ccc(C)c(C)c1)=N\NC(N)=O | > 692 | > 692 | – |
| CSCCCNC(=O)c1csc(-c2csc(CCNC(=O)CNC(=O)OC(C)(C)C)n2)n1 | > 501 | 234 | – |
| CC(CC(=O)O)C(N)C(=O)O (centres undefined) | > 200 | > 200 | – |
| Cc1ccc(N=NC(C2=NC(=O)CS2)c2nc3ccccc3[nH]2)cc1 (centres undefined) | > 7.41 | > 7.41 | – |
| O=C1CSC(c2ccccc2O)N1c1ccc(Oc2ccc(Cl)cc2)c(Cl)c1 (centres undefined) | > 100 | 24 | – |
| CC(C)(C)/C(O)=C\c1nc2cc(F)c(F)cc2[nH]c1=O | > 200 | 182 | – |
| CC1CNC(=S)SSC(=S)N1 (centres undefined) | > 200 | 25.1 | – |
| CCOCN1C(=O)C2CC(/C=C/C(=O)OC)=CN2C(=O)c2ccccc21 (centres undefined) | – | – | inactive |
| CCOC(=O)C1(C/C=C\CBr)CCCCCCC1=O (centres undefined) | > 200 | 16.2 | – |
| N=C(N)C1CN(CCc2c[nH]c3ccccc23)C(=O)NC1=O (centres undefined) | > 200 | > 200 | – |
| Cc1ccccc1C1=C/C(=C(\SS/C(C(=O)c2ccc(OCC(=O)O)c(Cl)c2Cl)=C2\C=C(c3ccccc3C)SS2)C(=O)c2ccc(OCC(=O)O)c(Cl)c2Cl)SS1 | > 26.9 | > 26.9 | – |
| S=C(Nc1ccc2c(c1)oc1ccccc12)c1cccnc1 | 67.6 | > 200 | – |
| Cc1ccc2c(c1)C(=O)c1[nH]c3ccc(F)cc3c1CO2 | > 200 | > 200 | – |
